According to US20250345321A1, “CATEQUENTINIB (ANLOTINIB) IN SEQUENTIAL COMBINATION WITH IMMUNOTHERAPY FOR USE IN THE TREATMENT OF CANCER” (ADVENCHEN PHARMACEUTICALS, LLC, priority 2019, published 2025):
Counter-ions that a name gives are not always drawn.

Assays:
[1] = Phase 2a chemo combination trial: TEAEs and toxicity; format: in vivo, human
Method: (§1) Phase 1 was completed in Q1 2017 at one study site to determine the recommend phase 2 dose (RP2D). The RP2D was determined to be AL3818 dihydrochloride 8 mg orally once daily in 21-day cycles (14 days on treatment, 7 days off treatment) on Day 8 to Day 21 of the cycle with platinum-based chemotherapy on Day 1 of the cycle.
(§2) Phase 2a is currently ongoing at four study sites in the U.S. The first subject was enrolled in April 2017. As of December 2018, 48 subjects with recurrent or metastatic endometrial, ovarian, and cervical cancer have been enrolled. 24 subjects are still on treatment and 24 subjects have discontinued treatment. 21 endometrial cancer subjects have been enrolled, 9 subjects have discontinued treatment. 8 subjects discontinued due to disease progression, 1 subject discontinued due to toxicity. 12 subjects remain on treatment.

[2] = tested on: recurrent or advanced endometrial, ovarian, and cervical cancer; test: Phase 1 efficacy of AL3818 with standard platinum-based chemotherapy (best response); format: in vivo, human; parameters: key to Best response: stable disease (SD); partial response (PR); complete response (CR)
Text: Patients in this trial were females with recurrent or advanced endometrial, ovarian, and cervical cancer.
In this described study, all patients received at least one dose of AL3818 dihydrochloride orally. Aside of three patients were permanent discharged from this study due to severe adverse events (SAE), the other six patients' best response ranged from stable disease (SD) (⅙, 16.7%), partial response (PR) ( 4/6, 66.6%) to complete response (CR) (⅙, 16.7%).
1. The daily dosage of compound AL3818 was the initial dosage that administrated to the patients, which might subject to a dosage reduction if serious side-effects were observed.
2. The best response represented the most favorable outcome during the entire treatment, regardless of the possible disease progression (PD) after that.

ovarian cancer = test: Phase 2a efficacy of AL3818 with standard platinum-based chemotherapy, ovarian cancer patients; format: in vivo, human; parameters: key: stable disease (SD); partial response (PR); complete response (CR); details: single ovarian cancer subjects, 8 mg daily + chemotherapy, December 2018, PtR = platinum resistant
Method: as §1, §2

[3] = Phase 1 chemo combination dosing de-escalation trial: safety, tolerability, DLT events
Text: A Phase 1 trial was designed to determine the recommended phase 2 dose (RP2D) for part 2 (phase 2a) of the study.
In this presented chemo combination therapy regimen, in the first day of the 21-day cycle, standard platinum-based chemotherapeutic agents were administrated intravenously to the patients. […] 1-6 cycles of chemotherapy were applied for each individual patient.
After the intravenous (IV) chemotherapy on the Day 1, Day 2 to Day 7 was the therapy free period.
From Day 22 (C2D1) (CXDY is the abbreviation for Cycle X Day Y. For example, C2D1 represents Cycle 2 Day 1), a new cycle began, paclitaxel and carboplatin (or cisplatin for cervical cancer) were administrated to the patients and Day 23 to Day 28 (C2D2 • C2D7) was the therapy free period again.
The first 21-day cycle plus 7 days (C1D1-C2D8 or Day 1 to Day28) was crucial in this regimen and it was called the primary safety evaluation period. The recommended phase 2 dose (RP2D) was obtained by evaluating according to the standard for the dose limiting toxicity (DLT) events of patients in this period of time.
This evaluation period could be extended to the end of second cycle for the patients who passed the primary safety evaluation period.
In this embodiment, if any serious dose limiting toxicity (DLT) events or other serious side effects occurred, according to the serious level, the patients might require to withdraw the treatment, reduce the dose of medication or switch to other medications.

endometrial cancer = test: Phase 2a efficacy of AL3818 with standard platinum-based chemotherapy, endometrial cancer patients; format: in vivo, human; parameters: key to Best response: stable disease (SD); partial response (PR); complete response (CR)
Method: as §1, §2
Combining Phase 1 and Phase 2a subjects, 24 subjects with endometrial cancer have been enrolled in study AL3818-US-002. 19 subjects have had evaluable responses as of December 2018. There were eight subjects enrolled in Phase 2a of the study as first-line treatment.

FGFR2 = FGFR2 (Homo sapiens, UniProt P21802); details: cited from earlier work
VEGFR3 = VEGFR3 (Homo sapiens, UniProt P35916); details: cited from earlier work
tumor = details: mouse model, disclosed in earlier filing; cited from earlier work
VEGFR1 = VEGFR1 (Homo sapiens, UniProt P17948); details: cited from earlier work
PDGFR-a = PDGFR-a (Homo sapiens, UniProt P16234); details: cited from earlier work
FGFR1 = FGFR1 (Homo sapiens, UniProt P11362); details: cited from earlier work
VEGFR2/KDR = VEGFR2/KDR (Homo sapiens, UniProt P35968); details: cited from earlier work
[4] = AL3818 combination therapy with Nivolumab Phase I trial (DLT); format: in vivo, human; details: 10 mg oral Day 1-14 + Nivolumab 240 mg infusion Day 1 and Day 15 per 28 days; six sarcoma subjects
Text: AL3818 and Nivolumab administrations are both started on Day 1.
Nivolumab is administrated via infusion on Day 1 and Day 15 for twice per 28 days, 21 days as one cycle will still be applied for the combination therapy. Nivolumab can be administrated via infusion on Day 1 once per 28 days, 21 days as one cycle will still be applied for the combination therapy. AL3818 is administrated orally from Day 1 to Day 14 and off from Day 15 to Day 21 for 21 days as one cycle. Nivolumab is administrated via infusion on Day 1 and Day 15 for twice per 28 days starting dose at 240 mg twice per 28 days. Nivolumab can be optionally administrated via infusion on Day 1 once per 28 days at 480 mg. AL3818 is administrated orally at Day 1-Day 14 at starting dose of 12 mg.
Treatments of subject 001 (liposarcoma), 002 (synovial sarcoma), 003 (angiosarcoma), 004 (leiomyosarcoma), 005 (undifferentiated pleomorphic sarcoma) and 006 (leiomyosarcoma) at 10 mg oral dosing Day 1-14 combing with Nivolumab at Day 1 and Day 15 for twice per 28 days starting dose at 240 mg infusion have been completed with one DLT (subject 002). Dose escalation to 12 mg combination therapies with Nivolumab with cervical cancer subject and other sarcoma subjects are ongoing.

FGFR3 = FGFR3 (Homo sapiens, UniProt P22607); details: cited from earlier work
c-KIT = c-KIT (Homo sapiens, UniProt P10721); details: cited from earlier work
[5] = 21 endometrial cancer subjects enrolled in Phase 2a, December 2018
[6] = single subject, ovarian cancer, daily dosage 8 mg + standard paclitaxel and carboplatin
[7] = single subjects, endometrial cancer, daily dosage 8 mg + standard paclitaxel and carboplatin
[8] = single subjects, ovarian cancer, initial daily dosage 12 mg + standard platinum-based chemotherapy
[9] = endometrial cancer, second- and further-line treatment, eleven subjects

Chain of VEGFR2/KDR (P35968 20-1356): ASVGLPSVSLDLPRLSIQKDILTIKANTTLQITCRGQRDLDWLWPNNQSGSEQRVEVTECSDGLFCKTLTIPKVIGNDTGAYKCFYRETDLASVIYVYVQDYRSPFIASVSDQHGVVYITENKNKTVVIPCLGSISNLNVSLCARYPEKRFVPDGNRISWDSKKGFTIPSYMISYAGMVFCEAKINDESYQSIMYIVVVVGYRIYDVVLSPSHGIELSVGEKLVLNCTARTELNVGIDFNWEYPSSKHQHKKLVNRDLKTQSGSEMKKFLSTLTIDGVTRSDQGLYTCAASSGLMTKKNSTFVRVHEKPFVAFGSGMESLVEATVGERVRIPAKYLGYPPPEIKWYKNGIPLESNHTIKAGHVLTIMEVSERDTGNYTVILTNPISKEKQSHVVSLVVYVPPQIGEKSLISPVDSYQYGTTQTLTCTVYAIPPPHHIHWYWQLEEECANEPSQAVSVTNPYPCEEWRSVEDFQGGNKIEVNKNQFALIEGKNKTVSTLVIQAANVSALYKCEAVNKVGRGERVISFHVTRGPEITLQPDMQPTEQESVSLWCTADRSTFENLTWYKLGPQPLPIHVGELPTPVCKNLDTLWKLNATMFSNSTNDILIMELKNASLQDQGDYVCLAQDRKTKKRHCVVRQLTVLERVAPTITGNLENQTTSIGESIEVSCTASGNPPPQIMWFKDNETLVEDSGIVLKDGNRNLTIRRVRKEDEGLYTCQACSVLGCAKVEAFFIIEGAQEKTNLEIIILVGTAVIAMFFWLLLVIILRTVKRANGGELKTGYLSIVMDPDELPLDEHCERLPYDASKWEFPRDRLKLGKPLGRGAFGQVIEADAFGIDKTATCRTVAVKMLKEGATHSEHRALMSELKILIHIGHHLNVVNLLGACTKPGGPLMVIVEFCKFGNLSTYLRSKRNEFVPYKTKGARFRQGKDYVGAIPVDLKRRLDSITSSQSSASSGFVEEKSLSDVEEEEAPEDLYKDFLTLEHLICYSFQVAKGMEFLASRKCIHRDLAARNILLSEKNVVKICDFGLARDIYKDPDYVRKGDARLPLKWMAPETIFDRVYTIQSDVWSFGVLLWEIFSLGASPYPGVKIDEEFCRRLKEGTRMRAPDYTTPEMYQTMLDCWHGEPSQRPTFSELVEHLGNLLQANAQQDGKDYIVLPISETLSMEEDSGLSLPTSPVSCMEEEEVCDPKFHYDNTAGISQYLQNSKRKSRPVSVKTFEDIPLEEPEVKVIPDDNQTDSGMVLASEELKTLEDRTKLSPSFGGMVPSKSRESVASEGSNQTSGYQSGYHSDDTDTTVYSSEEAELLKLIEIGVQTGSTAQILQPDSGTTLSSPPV
Chain of VEGFR1 (P17948 27-1338): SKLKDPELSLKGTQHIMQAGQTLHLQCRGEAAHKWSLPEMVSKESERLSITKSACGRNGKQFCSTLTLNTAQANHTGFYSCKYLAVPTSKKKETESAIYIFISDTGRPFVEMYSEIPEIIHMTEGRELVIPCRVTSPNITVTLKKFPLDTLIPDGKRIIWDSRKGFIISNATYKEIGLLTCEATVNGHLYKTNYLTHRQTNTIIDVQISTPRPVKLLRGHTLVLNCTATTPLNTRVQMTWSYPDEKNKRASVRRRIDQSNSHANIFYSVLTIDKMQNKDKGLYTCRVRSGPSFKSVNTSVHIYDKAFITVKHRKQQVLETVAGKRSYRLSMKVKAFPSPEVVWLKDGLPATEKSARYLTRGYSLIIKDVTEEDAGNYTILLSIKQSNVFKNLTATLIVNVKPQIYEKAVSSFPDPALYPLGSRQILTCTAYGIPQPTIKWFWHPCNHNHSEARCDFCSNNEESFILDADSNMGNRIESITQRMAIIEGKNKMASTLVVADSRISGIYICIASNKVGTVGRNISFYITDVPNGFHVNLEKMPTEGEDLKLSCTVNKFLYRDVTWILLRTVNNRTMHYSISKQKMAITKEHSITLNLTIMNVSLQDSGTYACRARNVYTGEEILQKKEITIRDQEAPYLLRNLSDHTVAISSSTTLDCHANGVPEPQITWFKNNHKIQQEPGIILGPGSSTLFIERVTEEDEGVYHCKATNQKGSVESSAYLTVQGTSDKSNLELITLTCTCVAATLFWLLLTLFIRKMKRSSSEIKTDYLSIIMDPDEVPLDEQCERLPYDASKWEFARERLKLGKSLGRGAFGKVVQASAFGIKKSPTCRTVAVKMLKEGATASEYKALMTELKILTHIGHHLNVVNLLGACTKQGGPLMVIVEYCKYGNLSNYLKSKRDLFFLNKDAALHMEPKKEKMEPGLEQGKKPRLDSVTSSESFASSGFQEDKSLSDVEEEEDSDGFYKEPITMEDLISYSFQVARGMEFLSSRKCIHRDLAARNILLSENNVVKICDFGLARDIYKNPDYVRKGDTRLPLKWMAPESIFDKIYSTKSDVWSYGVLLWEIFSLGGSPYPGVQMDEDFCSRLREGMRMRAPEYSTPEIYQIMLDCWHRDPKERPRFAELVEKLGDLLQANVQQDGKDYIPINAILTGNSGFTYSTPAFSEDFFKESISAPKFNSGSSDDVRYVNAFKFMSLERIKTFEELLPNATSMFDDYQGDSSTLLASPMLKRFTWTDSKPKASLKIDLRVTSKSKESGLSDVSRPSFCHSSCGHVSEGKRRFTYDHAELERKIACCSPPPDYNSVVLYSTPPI
Chain of PDGFR-a (P16234 24-1089): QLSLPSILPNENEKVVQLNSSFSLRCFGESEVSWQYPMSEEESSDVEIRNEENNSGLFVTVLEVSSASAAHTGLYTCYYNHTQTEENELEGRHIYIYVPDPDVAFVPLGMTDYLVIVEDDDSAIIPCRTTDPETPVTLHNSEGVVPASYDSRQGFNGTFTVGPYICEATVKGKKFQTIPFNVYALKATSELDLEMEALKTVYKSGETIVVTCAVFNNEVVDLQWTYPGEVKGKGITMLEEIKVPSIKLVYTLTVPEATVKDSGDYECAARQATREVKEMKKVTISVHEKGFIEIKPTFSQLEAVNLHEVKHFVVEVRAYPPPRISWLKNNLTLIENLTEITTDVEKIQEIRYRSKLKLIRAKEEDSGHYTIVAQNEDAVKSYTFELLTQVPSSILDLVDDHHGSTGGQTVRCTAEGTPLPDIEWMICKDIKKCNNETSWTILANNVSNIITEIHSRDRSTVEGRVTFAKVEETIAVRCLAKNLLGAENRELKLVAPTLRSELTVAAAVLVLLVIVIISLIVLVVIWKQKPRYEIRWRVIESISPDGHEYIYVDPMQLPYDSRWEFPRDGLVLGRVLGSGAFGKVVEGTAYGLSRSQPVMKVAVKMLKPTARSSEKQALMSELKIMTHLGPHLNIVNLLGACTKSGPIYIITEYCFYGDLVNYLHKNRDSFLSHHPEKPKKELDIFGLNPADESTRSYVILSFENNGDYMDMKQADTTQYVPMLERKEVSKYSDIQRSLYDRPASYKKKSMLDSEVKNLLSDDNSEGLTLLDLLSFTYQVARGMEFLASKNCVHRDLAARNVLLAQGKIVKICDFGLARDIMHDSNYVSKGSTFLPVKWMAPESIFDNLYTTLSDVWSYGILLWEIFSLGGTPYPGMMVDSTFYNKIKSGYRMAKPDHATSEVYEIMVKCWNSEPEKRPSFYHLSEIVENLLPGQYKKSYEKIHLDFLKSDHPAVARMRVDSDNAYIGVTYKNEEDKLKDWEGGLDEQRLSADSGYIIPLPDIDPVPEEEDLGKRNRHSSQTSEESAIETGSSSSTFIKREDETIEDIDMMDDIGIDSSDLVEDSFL
Chain of FGFR3 (P22607 23-806): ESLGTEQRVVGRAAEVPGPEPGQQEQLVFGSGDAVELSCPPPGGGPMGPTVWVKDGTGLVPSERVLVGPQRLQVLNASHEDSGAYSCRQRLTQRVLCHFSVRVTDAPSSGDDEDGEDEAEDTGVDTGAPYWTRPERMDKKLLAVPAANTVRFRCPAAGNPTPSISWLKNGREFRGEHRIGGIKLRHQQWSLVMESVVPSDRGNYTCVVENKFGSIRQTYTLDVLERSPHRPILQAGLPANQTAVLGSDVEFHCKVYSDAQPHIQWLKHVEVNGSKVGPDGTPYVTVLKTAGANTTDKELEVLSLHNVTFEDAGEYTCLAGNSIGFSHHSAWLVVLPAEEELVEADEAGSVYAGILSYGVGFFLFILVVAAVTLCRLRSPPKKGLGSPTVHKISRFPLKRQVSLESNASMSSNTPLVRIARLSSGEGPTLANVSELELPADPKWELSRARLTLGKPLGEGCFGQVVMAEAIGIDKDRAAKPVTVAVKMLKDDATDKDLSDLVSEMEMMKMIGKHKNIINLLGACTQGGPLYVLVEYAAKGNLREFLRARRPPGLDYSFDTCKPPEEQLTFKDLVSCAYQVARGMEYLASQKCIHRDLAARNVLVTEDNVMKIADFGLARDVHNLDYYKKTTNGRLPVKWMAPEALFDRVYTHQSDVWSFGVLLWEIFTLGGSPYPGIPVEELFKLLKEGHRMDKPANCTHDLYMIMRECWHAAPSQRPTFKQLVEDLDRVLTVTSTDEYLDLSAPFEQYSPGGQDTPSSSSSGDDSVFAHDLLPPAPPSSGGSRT

With `COc1cc2c(Oc3ccc4[nH]c(C)cc4c3F)ccnc2cc1OCC1(N)CC1` [AL3818 dihydrochloride] the “subjects discontinued due to toxicity” value [1, 5] was 1 subject, the TEAE abdominal pain ([1]; Phase 2a, % of all TEAEs) was 4.20% and the TEAE alopecia ([1]; Phase 2a, % of all TEAEs) was 1.3%. It also gave a TEAE anaemia ([1]; Phase 2a, % of all TEAEs) of 1.8%, a TEAE arthralgia ([1]; Phase 2a, % of all TEAEs) of 1.6% and a TEAE asthenia ([1]; Phase 2a, % of all TEAEs) of 2.2%. It also gave a TEAE back pain ([1]; Phase 2a, % of all TEAEs) of 1.5%, a TEAE constipation ([1]; Phase 2a, % of all TEAEs) of 2.7% and a TEAE decreased appetite ([1]; Phase 2a, % of all TEAEs) of 2.7%. It also gave a TEAE diarrhea ([1]; Phase 2a, % of all TEAEs) of 6.3%, a TEAE dyspnea ([1]; Phase 2a, % of all TEAEs) of 1% and a TEAE epistaxis ([1]; Phase 2a, % of all TEAEs) of 3%. The TEAE fatigue ([1]; Phase 2a, % of all TEAEs) was 4.5%, the TEAE flatulence ([1]; Phase 2a, % of all TEAEs) was 1.5% and the TEAE headache ([1]; Phase 2a, % of all TEAEs) was 3.2%. For the same compound, the TEAE hypertension ([1]; Phase 2a, % of all TEAEs) was 3.3%, the TEAE hypokalemia ([1]; Phase 2a, % of all TEAEs) was 1.3% and the TEAE hypomagnesaemia ([1]; Phase 2a, % of all TEAEs) was 1%. For the same compound, the TEAE insomnia ([1]; Phase 2a, % of all TEAEs) was 1.3%, the TEAE nausea ([1]; Phase 2a, % of all TEAEs) was 4.7% and the TEAE neuropathy peripheral ([1]; Phase 2a, % of all TEAEs) was 2%. For the same compound, the TEAE neutropenia ([1]; Phase 2a, % of all TEAEs) was 2%, the “TEAE neutrophil count decreased” value ([1]; Phase 2a, % of all TEAEs) was 1% and the “TEAE pain in extremity” value ([1]; Phase 2a, % of all TEAEs) was 1.7%. For the same compound, the TEAE pyrexia ([1]; Phase 2a, % of all TEAEs) was 1.2%, the TEAE thrombocytopenia ([1]; Phase 2a, % of all TEAEs) was 1.7% and the “TEAE urinary tract infection” value ([1]; Phase 2a, % of all TEAEs) was 1.3%. For the same compound, the TEAE vomiting ([1]; Phase 2a, % of all TEAEs) was 2.8%, the TEAE weight decreased ([1]; Phase 2a, % of all TEAEs) was 1% and the “share of patients with best response complete response (CR)” value ([2]; Phase 1, six evaluable patients (1/6)) was 16.7%. The “share of patients with best response partial response (PR)” value ([2]; Phase 1, six evaluable patients (4/6)) was 66.6%, the Best response [2, 6] was “SD” and the Best response [2, 7] was “PR”. For the same compound, the Best response [2, 8] was “PR”, the “Best Response (% reduction)” value (ovarian cancer) was “SD” and the “dose limiting toxicity (DLT) events” value ([3]; 10 mg daily group, three patients, oral Day 8-21 of 21-day cycle + paclitaxel/carboplatin Day 1) was “one of the patients”. For the same compound, the “dose limiting toxicity (DLT) events during the primary safety evaluation period” value ([3]; 12 mg daily group, three patients, oral Day 8-21 of 21-day cycle + paclitaxel/carboplatin Day 1) was “two of the patients out of three”, the safe daily dosage ([3]; 21-day cycle (14 days on, 7 off) combined with paclitaxel and carboplatin (or cisplatin)) was 8 mg and the “recommended phase 2 dose (RP2D)” value ([3]; oral once daily Day 8-21 of 21-day cycle with platinum-based chemotherapy Day 1) was 8 mg. For the same compound, the “subjects discontinued due to disease progression” value (endometrial cancer; [5]) was 8 subjects, the “partial responses (PR) as best responses” value (endometrial cancer; endometrial cancer, first-line treatment, eight subjects) was “five partial responses” and the “Objective response rate (ORR)” value (endometrial cancer; endometrial cancer, first-line treatment, eight subjects Phase 2a (5/8)) was 62.5%. For the same compound, the “disease control rate (DCR)” value (endometrial cancer; endometrial cancer, first-line treatment, eight subjects Phase 2a (6/8)) was 75%, the “complete response (CR) as best responses” value (endometrial cancer; [9]) was “one complete response” and the “partial responses (PR) as best responses” value (endometrial cancer; [9]) was “five partial responses”. For the same compound, the “disease control rate (DCR)” value (endometrial cancer; endometrial cancer, second- and further-line treatment, eleven subjects (9/11)) was 82%, the “Objective response rate (ORR)” value (endometrial cancer; endometrial cancer, second- and further-line treatment, eleven subjects Phase 1 and 2a (6/11)) was 54.5% and the “Best response” value (endometrial cancer; single endometrial cancer subjects, Phase 2a, 8 mg daily + paclitaxel/carboplatin, December 2018) was “CR and PR and SD”.

For `COc1cc2c(Oc3ccc4[nH]c(C)cc4c3F)ccnc2cc1OCC1(N)CC1` [AL3818, (1-[[4-(4-fluoro-2-methyl-1H-indol-5-yloxy)-6-methoxyquinolin-7-yl]oxy]methyl]cyclopropaneamine], the “inhibition of FGFR2” value (FGFR2) is listed as “strong inhibitor”, the Best response ([2]; single subject, cervical cancer, initial daily dosage 12 mg + standard platinum-based chemotherapy) is listed as “NE/SAE” and the Best response ([2]; single subject, endometrial cancer, initial daily dosage 10 mg + standard platinum-based chemotherapy) is listed as “PR”. The Best response [2, 6] was “SD”, the Best response [2, 7] was “PR” and the Best response ([2]; single subjects, ovarian cancer, initial daily dosage 10 mg + standard platinum-based chemotherapy) was “CR and NE/SAE”. For the same compound, the Best response [2, 8] was “NE/SAE and PR”, the “inhibition of VEGFR3 activity” value (VEGFR3) was “could inhibit” and the “anti-tumor effect of combination with chemotherapy agents” value (tumor) was “synergistic anti-tumor effects”. For the same compound, the “inhibition of VEGFR1 activity” value (VEGFR1) was “could inhibit”, the “inhibition of PDGFR-a” value (PDGFR-a) was “strong inhibitor” and the “dose limiting toxicity (DLT) events” value ([3]; 8 mg daily group, three patients, oral Day 8-21 of 21-day cycle + paclitaxel/carboplatin Day 1) was “no patient”. The “tolerability of daily dosage of 12 mg” value ([3]; 12 mg daily together with platinum-based chemotherapy) was “too high”, the TEAE abdominal pain ([3]; Phase 1, nine subjects) was 2.88% and the TEAE alopecia ([3]; Phase 1, nine subjects) was 2.91%. The TEAE chest pain ([3]; Phase 1, nine subjects) was 1.92%, the TEAE dehydration ([3]; Phase 1, nine subjects) was 1.92% and the TEAE diarrhea ([3]; Phase 1, nine subjects) was 4.81%. The TEAE dizziness ([3]; Phase 1, nine subjects) was 2.88%, the TEAE fatigue ([3]; Phase 1, nine subjects) was 4.81% and the TEAE hypertension ([3]; Phase 1, nine subjects) was 2.88%. For the same compound, the TEAE nausea ([3]; Phase 1, nine subjects) was 9.62%, the TEAE pulmonary embolism ([3]; Phase 1, nine subjects) was 1.92% and the TEAE sore throat ([3]; Phase 1, nine subjects) was 1.92%. The TEAE thrombocytopenia ([3]; Phase 1, nine subjects) was 1.94%, the “TEAE urinary tract infection” value ([3]; Phase 1, nine subjects) was 2.88% and the TEAE vomiting ([3]; Phase 1, nine subjects) was 5.77%. For the same compound, the TEAE weakness generalized ([3]; Phase 1, nine subjects) was 2.88%, the “subjects reporting treatment emergent adverse events (TEAE)” value ([3]; Phase 1, nine subjects (9/9)) was 100% and the “inhibition of FGFR1” value (FGFR1) was “strong inhibitor”. For the same compound, the “inhibition of VEGFR2/KDR activity” value (VEGFR2/KDR) was “could inhibit”, the DLT [4] was “one DLT” and the “inhibition of FGFR3” value (FGFR3) was “strong inhibitor”. The “inhibition of c-KIT” value (c-KIT) was “strong inhibitor”.
